Assay results taken from the supplement of paper PMC10307832.

Tests used:
Assay in all cases: relative viability (nuclei count vs DMSO), 5 days (fraction); higher = more cells survive
[1] = compound: CCCS(=O)(=O)Nc1ccc(F)c(C(=O)c2c[nH]c3ncc(-c4ccc(Cl)cc4)cc23)c1F [Vemurafenib] + CC(=O)c1c(C)c2cnc(Nc3ccc(N4CCNCC4)cn3)nc2n(C2CCCC2)c1=O [Palbociclib] (partner 0.5 µM)
Procedure, shortened: (§1)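 Dosing by pin tool came one day after lung cancer cell lines were seeded in 1536-well plates, using either one drug or a fixed anchor-drug dose plus five library-drug doses (not always all listed) in √10 steps. After 5 days, nuclei were counted on 4× images. Relative viability is treated-well nuclei count divided by vehicle-well nuclei count, and values are medians of duplicate plates.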

[2] = compound: COc1cccc2cc(-c3nc([C@H]4CC[C@H](C(=O)O)CC4)n4ncnc(N)c34)[nH]c12 [OSI-027] + CS(=O)(=O)N1CCN(Cc2cc3nc(-c4cccc5[nH]ncc45)nc(N4CCOCC4)c3s2)CC1 [Pictilisib] (partner 1 µM)
Procedure, shortened: as §1

[3] = compound: COc1cccc2cc(-c3nc([C@H]4CC[C@H](C(=O)O)CC4)n4ncnc(N)c34)[nH]c12 [OSI-027] + CCNC(=O)c1noc(-c2cc(C(C)C)c(O)cc2O)c1-c1ccc(CN2CCOCC2)cc1 [Luminespib] (partner 0.01 µM)
Procedure, shortened: as §1

[4] = compound: COc1cccc2cc(-c3nc([C@H]4CC[C@H](C(=O)O)CC4)n4ncnc(N)c34)[nH]c12 [OSI-027] + C[C@]1(O)C[C@@H](c2nc(-c3ccc4ccc(-c5ccccc5)nc4c3)c3c(N)nccn32)C1 [Linsitinib] (partner 1 µM)
Procedure, shortened: as §1

Cell Line	relative viability ([1]; first compound 0.03162 µM)	relative viability ([1]; first compound 0.1 µM)	relative viability ([1]; first compound 0.3162 µM)	relative viability ([1]; first compound 1 µM)	relative viability ([2]; first compound 0.01 µM)	relative viability ([2]; first compound 0.03162 µM)	relative viability ([2]; first compound 0.1 µM)	relative viability ([2]; first compound 0.3162 µM)	relative viability ([2]; first compound 1 µM)	relative viability ([3]; first compound 0.01 µM)	relative viability ([3]; first compound 0.03162 µM)	relative viability ([3]; first compound 0.1 µM)	relative viability ([3]; first compound 0.3162 µM)	relative viability ([3]; first compound 1 µM)	relative viability ([4]; first compound 0.01 µM)	relative viability ([4]; first compound 0.03162 µM)	relative viability ([4]; first compound 0.1 µM)	relative viability ([4]; first compound 0.3162 µM)	relative viability ([4]; first compound 1 µM)
NCI-H2085	0.422	0.451	0.416	0.509	0.436	0.367	0.483	0.33	0.323	0.647	0.437	0.439	0.341	0.231	0.884	0.847	0.82	0.753	0.422
NCI-H1755	0.459	0.43	0.431	0.434	0.412	0.392	0.346	0.306	0.281	0.577	0.533	0.369	0.382	0.416	0.976	1.05	1.02	0.885	0.392
PC-14	0.449	–	0.504	0.537	0.526	0.719	0.722	0.544	0.171	0.146	0.108	0.126	0.17	0.17	0.944	0.946	0.891	0.914	0.582
NCI-H3122	0.177	0.172	0.206	0.178	0.603	0.584	0.513	0.317	0.258	0.0994	0.0843	0.054	0.0869	0.0772	1.04	1.04	1.07	0.763	0.289
SK-LU-1	0.388	0.377	0.368	0.337	0.529	0.462	0.355	0.272	0.287	0.188	0.198	0.173	0.181	0.152	1.06	0.83	0.63	0.406	0.306
HCC-44	0.957	0.887	0.957	0.926	0.521	0.572	0.481	0.32	0.365	1.33	0.89	0.903	0.759	0.512	0.646	0.628	0.584	0.452	0.195
NCI-H460	0.146	0.152	0.108	0.203	0.274	0.416	0.295	0.314	0.211	0.0335	0.032	0.0283	0.0249	0.0266	0.95	0.34	0.627	0.186	0.105
NCI-H1915	0.526	0.496	0.554	0.487	0.947	0.988	0.78	0.716	0.572	1.04	0.972	0.862	0.687	0.562	1.11	1.13	1.12	1.02	0.863
NCI-H2126	0.328	0.354	0.344	0.333	0.519	0.487	0.455	0.419	0.407	0.93	1.01	0.85	0.575	0.547	0.739	0.593	0.536	0.416	0.701
EPLC-272H	0.34	0.3	0.413	0.353	0.287	0.308	0.296	0.316	0.215	0.38	0.267	0.147	0.2	0.228	1.08	1.05	1.12	0.866	0.961
LCLC-103H	0.426	0.448	0.501	0.467	0.588	0.641	0.582	0.568	0.561	1.03	0.994	0.908	0.85	0.504	0.994	0.968	1.07	0.906	1.05
NCI-H661	0.406	0.357	0.454	0.403	0.42	0.392	0.344	0.254	0.268	0.894	0.977	0.846	0.917	0.409	0.511	0.334	0.521	0.364	0.269
PC-3 [JPC-3]	–	–	0.485	0.565	0.68	0.675	0.697	0.62	0.521	0.839	0.553	0.661	0.598	0.332	0.943	1.01	0.971	0.867	0.834
NCI-H2087	0.204	0.222	0.266	0.275	0.794	0.787	0.686	0.523	0.329	0.143	0.166	0.176	0.133	0.158	1.03	0.845	0.819	0.632	0.29
NCI-H1666	0.579	0.699	0.665	0.641	0.365	0.369	0.537	0.27	0.257	1.01	1	0.996	0.891	0.915	0.775	0.536	0.459	0.337	0.39
